The source of these data is US11548899B2, “Fused 1,4-oxazepines and related analogs as BET bromodomain inhibitors” (THE REGENTS OF THE UNIVERSITY OF MICHIGAN, priority 2016, dated 2023).

For one assay, the system named is RS4-11. The experiment in a line: Cell growth inhibition, 4-day proliferation assay, RS4-11. The note with it: read-out: Cell Viability (IC50, μM) RS4-11. It counts as cell-based. As to the method: (§1) The effect of representative Compounds of the Disclosure on cell viability was determined in a 4-day proliferation assay. Cells were maintained in the appropriate culture medium with 10% FBS at 37° C. and an atmosphere of 5% CO2. All the cell lines were used within three months of thawing fresh vials.
(§2) Cells were seeded in 96-well flat bottom (Corning COSTAR, Corning, N.Y., cat #3595) or white opaque cell culture plates (BD Falcon, cat #353296) at a density of 3,000-10,000 cells/well in 75 μl of culture medium. Compounds were serially diluted in the appropriate medium, and 75 μl of the diluted compounds were added to the appropriate wells of the cell plate. After the addition of compounds, the cells were incubated at 37° C. in an atmosphere of 5% CO2 for 4 days. Cell viability was determined using the CellTiter-Glo® Luminescent Cell Viability Assay Kit (Promega, Madison, Wis.) for leukemia cells and WST (2-(2-methoxy-4-nitrophenyl)-3-(4-nitrophenyl)-5-(2,4-disulfophenyl)-2H-tetrazolium, monosodium salt) Cell Counting-8 Kit (Dojindo Molecular Technologies, Inc., Rockville, Md.) for adhenrent cells according to the manufacturers' instructions. […]
(§3) For CellTiter-Glo assay (suspension cells), 100 μl of CellTiter-Glo® Reagent was added to each well, and then the plates were incubated at room temperature for 10-20 minutes. The luminescent signal was measured using a Tecan Infinite M1000 multimode microplate reader (Tecan, Morrisville, N.C.). The readings were normalized to the DMSO-treated cells and the IC50 was calculated by nonlinear regression (four parameters sigmoid fitted with variable slope, least squares fit, and no constraint) analysis using the GraphPad Prism 5 software. See US 2014/0256706.

The next assay concerns MOLM-13. The experiment in a line: Cell growth inhibition, 4-day proliferation assay, MOLM-13. It counts as cell-based. The note with it: read-out: Cell Viability (IC50, μM) MOLM-13. As to the method: as §1, §2, §3
The target of another assay is T1, recombinant BRD4 BD2 (Homo sapiens, UniProt O60885).
T1 construct: recombinant BRD4 BD1 and BRD4 BD2 proteins
In words: Competitive fluorescence-polarization (FP) binding assay, BRD4 BD2. As to conditions: protein 6 nM, probe 1.5 nM.

The next assay concerns the target T2, recombinant BRD4 BD1 (Homo sapiens, UniProt O60885).
T2 construct: recombinant BRD4 BD1 and BRD4 BD2 proteins
In words: Competitive fluorescence-polarization (FP) binding assay, BRD4 BD1. As to conditions: FP competitive binding; protein 10 nM, probe 1.5 nM; read-out: IC50 (nM) BRD4 BD1.

[1] abbreviates: Homo sapiens, RS4-11, 96 h, 4 days incubation, RS4-11 cells.
Setting [2] is: Homo sapiens, MOLM-13, 96 h, 4 days incubation, MOLM-13 cells.
Where [3] appears, read: 4 days incubation, RS4-11 cells.

“And” between values parts separate entries of the source, which are not always exact repeats. Equal entries are not always repeated. Where two headings read alike, the source gives them in different places.

As usually defined, the IC50 is the concentration needed to halve the response being measured. As to `Cc1sc2c(c1Cc1ccccc1)COCc1nnc(C)n1-2` [Cpd. No. 4, 3-benzyl-2,9-dimethyl-4H,6H-thieno[2,3-e][1,2,4]triazolo[3,4-c][1,4]oxazepine], the 50% inhibitory concentration (IC50) in the assay on RS4-11 (setting [1]) stood at 1.7 µM; in the assay with MOLM-13 (4 days incubation, MOLM-13 cells), 0.9 µM; in the assay with MOLM-13 (setting [2]), 0.8 µM.

Turning to `Cc1sc2c(c1-c1ccnc3ccccc13)COCc1nnc(C)n1-2` [Cpd. No. 5, 2,9-dimethyl-3-(quinolin-4-yl)-4H,6H-thieno[2,3-e][1,2,4]triazolo[3,4-c][1,4]oxazepine], the values for the IC50 at recombinant BRD4 BD2, in the assay on RS4-11 (setting [1]) and on recombinant BRD4 BD1 were 1070 nM, above 5 µM and 1370 nM, respectively.

Turning to `Cc1nnc2n1-c1cccc(C3(c4ccccc4)CC3)c1COC2` [Cpd. No. 48, 1-methyl-7-(1-phenylcyclopropyl)-4,6-dihydrobenzo[e][1,2,4]triazolo[3,4-c][1,4]oxazepine], the half-inhibitory concentration (IC50) was 71.6 nM and 137 nM at recombinant BRD4 BD2; 454 nM and 696 nM at recombinant BRD4 BD1; 1.4 µM in the assay on MOLM-13 (setting [2]).

In the case of `Cc1nnc2n1-c1cccc(C3=CCCc4ccccc43)c1COC2` [Cpd. No. 49, 7-(3,4-dihydronaphthalen-1-yl)-1-methyl-4,6-dihydrobenzo[e][1,2,4]triazolo[3,4-c][1,4]oxazepine], the concentration for half-maximal inhibition (IC50) was 271 nM and 175 nM on recombinant BRD4 BD2; 2350 nM and 1820 nM on recombinant BRD4 BD1; above 5 µM with MOLM-13 (setting [2]).

On to `Cc1nnc2n1-c1cccc(C3CCCc4ccccc43)c1COC2` (stereo not drawn) [Cpd. No. 50, 1-methyl-7-(1,2,3,4-tetrahydronaphthalen-1-yl)-4,6-dihydrobenzo[e][1,2,4]triazolo[3,4-c][1,4]oxazepine], for which the IC50 on recombinant BRD4 BD2 is 146 nM and 247 nM; on recombinant BRD4 BD1, 425 nM and 585 nM; with MOLM-13 (setting [2]), 2.7 µM.

Consider `Cc1nnc2n1-c1ccc(C#CCCO)c(Cc3ccccc3)c1COC2` [Cpd. No. 84, 4-(7-benzyl-1-methyl-4,6-dihydrobenzo[e][1,2,4]triazolo[3,4-c][1,4]oxazepin-8-yl)but-3-yn-1-ol], for which the concentration for half-maximal inhibition (IC50) was 1 µM in the assay with RS4-11 (setting [1]) and 0.7 µM in the assay on MOLM-13 (setting [2]).

Regarding `Cc1nnc2n1-c1sc(C#Cc3cncn3C)c(Cc3ccccc3)c1COC2` [Cpd. No. 86, 3-benzyl-9-methyl-2-((1-methyl-H-imidazol-5-yl)ethynyl)-4,6-dihydrothieno[2,3-e][1,2,4]triazolo[3,4-c][1,4]oxazepine], the figures for the IC50 in the assay on RS4-11 (setting [1]) and with MOLM-13 (setting [2]) were 0.2 µM and 0.14 µM, respectively.

With `Cc1nnc2n1-c1sc(C#Cc3ccncc3)c(Cc3ccccc3)c1COC2` [Cpd. No. 87, 3-benzyl-9-methyl-2-(pyridin-4-ylethynyl)-4,6-dihydrothieno[2,3-e][1,2,4]triazolo[3,4-c][1,4]oxazepine], the IC50 with RS4-11 (setting [1]) is 0.21 µM; in the assay on MOLM-13 (setting [2]), 0.14 µM.

On to `Cc1nnc2n1-c1sc(C#Cc3cccnc3)c(Cc3ccccc3)c1COC2` [Cpd. No. 88, 3-benzyl-9-methyl-2-(pyridin-3-ylethynyl)-4,6-dihydrothieno[2,3-e][1,2,4]triazolo[3,4-c][1,4]oxazepine], for which the concentration for half-maximal inhibition (IC50) in the assay on RS4-11 (Homo sapiens, RS4-11, 96 h) came out at 0.25 µM; in the assay on MOLM-13 (Homo sapiens, MOLM-13, 96 h), 0.12 µM.

For `Cc1nnc2n1-c1sc(C3CC3)c(Cc3ccccc3)c1COC2` [Cpd. No. 93, 3-benzyl-2-cyclopropyl-9-methyl-4H,6H-thieno[2,3-e][1,2,4]triazolo[3,4-c][1,4]oxazepine], the IC50 in the assay with RS4-11 (setting [1]) and in the assay with MOLM-13 (setting [2]) was above 5 µM each time.

Regarding `Cc1nnc2n1-c1sc(C#Cc3cnn(C)c3)c(Cc3ccc(F)cc3)c1COC2` [Cpd. No. 111, 3-(4-fluorobenzyl)-9-methyl-2-((1-methyl-H-pyrazol-4-yl)ethynyl)-4H,6H-thieno[2,3-e][1,2,4]triazolo[3,4-c][1,4]oxazepine], the IC50 at recombinant BRD4 BD2 was 112 nM and 142 nM and 127 nM; in the assay on RS4-11 (setting [3]), 0.25 µM; with RS4-11 (setting [1]), 0.18 µM; at recombinant BRD4 BD1, 5.4 nM and 10.5 nM and 12.9 nM.

As for `Cc1nnc2n1-c1sc(C#CCCO)c(Cc3ccccc3)c1CO[C@H]2C` [Cpd. No. 113, (S)-4-(3-benzyl-6,9-dimethyl-4H,6H-thieno[2,3-e][1,2,4]triazolo[3,4-c][1,4]oxazepin-2-yl)but-3-yn-1-ol], the IC50 is 146 nM and 149 nM on recombinant BRD4 BD2; 0.45 µM in the assay on RS4-11 (setting [3]); 0.24 µM with RS4-11 (setting [1]); 26.9 nM and 40 nM on recombinant BRD4 BD1.
